Results from patent US20240025919A1, “AZA-TETRACYCLIC OXAZEPINE COMPOUNDS AND USES THEREOF” (Genentech, Inc., priority 2022, published 2024).
pIC50: −log10 of the molar value.

Tests used:
[1] = biological target: KRAS G12D (Homo sapiens (Human), UniProt P01116, G12D); experiment: KRAS G12D LoEnz Biochemical Assay, BODIPY-GDP Exchange TR-FRET (SOS1-mediated nucleotide exchange); details: read-out: KRas (G12D) GDP HTRF IC50
[2] = biological target: T1, KRAS WT (Homo sapiens (Human), UniProt P01116); experiment: KRAS WT Biochemical Assay, BODIPY-GDP Exchange TR-FRET (Example 501; 3 nM KRAS WT, 3 nM SOS1, 60-minute incubation); details: read-out: KRas(wt) GDP HTRF IC50
In short: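 SOS1-mediated exchange assay: 3 nM biotin-KRAS WT with terbium-streptavidin, started with 3 nM SOS1 and 300 nM BODIPY-GDP, HEPES pH 7.5 with MgCl2. TR-FRET (520/490 nm) read after 60 min; normalized to DMSO and full-inhibition control, IC50 from 4-parameter Hill fit.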

[3] = biological target: T1, KRAS WT; experiment: KRAS WT Biochemical Assay, BODIPY-GDP Exchange TR-FRET (Example 502; 0.06 nM KRAS WT, 15 nM GDP, 300 nM SOS1, 120-minute incubation); details: read-out: KRas HTRF IC50
In short: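 Biotin-tagged recombinant KRAS WT (0.06 nM) preloaded with 15 nM GDP and Tb-streptavidin, 10 min RT, then exchange started with 300 nM SOS1 plus 300 nM BODIPY-GDP in HEPES pH 7.5 buffer with MgCl2. TR-FRET 520/490 ratio read after 120 min; normalized to DMSO and full-inhibition control; IC50 from 4-parameter fit.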

T1 sequence (P01116-2 other isoform, or with tags, fused parts or gaps): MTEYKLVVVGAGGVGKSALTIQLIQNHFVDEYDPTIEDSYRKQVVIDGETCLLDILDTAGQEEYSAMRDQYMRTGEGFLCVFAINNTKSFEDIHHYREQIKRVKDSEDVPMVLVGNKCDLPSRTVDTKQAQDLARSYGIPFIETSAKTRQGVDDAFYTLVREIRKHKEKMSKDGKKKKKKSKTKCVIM
KRAS G12D, sequence (P01116-2 other isoform, or with tags, fused parts or gaps G12D): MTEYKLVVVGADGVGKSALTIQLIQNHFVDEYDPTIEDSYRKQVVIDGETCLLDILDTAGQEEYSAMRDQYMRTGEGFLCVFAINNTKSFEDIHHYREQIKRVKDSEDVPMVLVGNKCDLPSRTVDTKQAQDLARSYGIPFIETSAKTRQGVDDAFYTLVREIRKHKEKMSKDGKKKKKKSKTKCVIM

Row | Compound | pIC50 [1] | pIC50 [2] | pIC50 [3]
1 | Cc1cc(N)c(F)c(-c2nc3c4c(nc(OC[C@@]56CCCN5C[C@H](F)C6)nc4c2F)N2C[C@H]4CC[C@H](N4)[C@H]2[C@H](C)O3)c1C(F)(F)F [Compound 34, 2-Fluoro-3-((5S,5aS,6S,9R)-1-fluoro-12-(((2R,7aS)-2-fluorotetrahydro-1H-pyrrolizin-7a(5H)-yl)methoxy)-5-methyl-5a,6,7,8,9,10-hexahydro-5H-4-oxa-3,10a,11,13,14-pentaaza-6,9-methanonaphtho[1,8-ab]heptalen-2-yl)-5-methyl-4-(trifluoromethyl)aniline] | 9.63 | 8.67 | 8.37
2 | C#Cc1c(F)ccc2cc(O)cc(-c3nc4c5c(nc(OC[C@@]67CCCN6C[C@H](F)C7)nc5c3F)N3C[C@H]5CC[C@H](N5)[C@H]3[C@H](C)O4)c12 [Compound 7, 5-Ethynyl-6-fluoro-4-((5S,5aS,6S,9R)-1-fluoro-12-(((2R,7aS)-2-fluorotetrahydro-1H-pyrrolizin-7a(5H)-yl)methoxy)-5-methyl-5a,6,7,8,9,10-hexahydro-5H-4-oxa-3,10a,11,13,14-pentaaza-6,9-methanonaphtho[1,8-ab]heptalen-2-yl)naphthalen-2-ol] | 10.23 | 9.53 | 9.54
3 | Cc1c(F)c(N)cc(-c2nc3c4c(nc(OC[C@@H]5CC[C@H]6COCCN65)nc4c2F)N2C[C@H]4CC[C@H](N4)[C@H]2[C@H](C)O3)c1C(F)(F)F [Compound 31, 2-fluoro-5-((5S,5aS,6S,9R)-1-fluoro-12-(((6S,8aS)-hexahydro-1H-pyrrolo[2,1-c][1,4]oxazin-6-yl)methoxy)-5-methyl-5a,6,7,8,9,10-hexahydro-5H-4-oxa-3,10a,11,13,14-pentaaza-6,9-methanonaphtho[1,8-ab]heptalen-2-yl)-3-methyl-4-(trifluoromethyl)aniline] | 10.06 | 8.81 | 8.15
4 | CCc1cccc2cc(O)cc(-c3nc4c5c(nc(OC[C@@]67CCCN6C[C@H](F)C7)nc5c3F)N3C[C@H]5CC[C@H](N5)[C@H]3[C@H](C)O4)c12 [Compound 10, 5-ethyl-4-((5S,5aS,6S,9R)-1-fluoro-12-(((2R,7aS)-2-fluorotetrahydro-1H-pyrrolizin-7a(5H)-yl)methoxy)-5-methyl-5a,6,7,8,9,10-hexahydro-5H-4-oxa-3,10a,11,13,14-pentaaza-6,9-methanonaphtho[1,8-ab]heptalen-2-yl)naphthalen-2-ol] | 10.09 | 8.19 | 7.88
5 | C[C@@H]1Oc2nc(-c3cc(N)cc(F)c3C(F)(F)F)c(F)c3nc(OC[C@@]45CCCN4C[C@H](F)C5)nc(c23)N2C[C@H]3CC[C@H](N3)[C@@H]12 [Compound 17, 3-fluoro-5-((5S,5aS,6S,9R)-1-fluoro-12-(((2R,7aS)-2-fluorotetrahydro-1H-pyrrolizin-7a(5H)-yl)methoxy)-5-methyl-5a,6,7,8,9,10-hexahydro-5H-4-oxa-3,10a,11,13,14-pentaaza-6,9-methanonaphtho[1,8-ab]heptalen-2-yl)-4-(trifluoromethyl)aniline] | 9.88 | 9.25 | 8.98
6 | Cc1cc(-c2nc3c4c(nc(OC[C@@]56CCCN5C[C@H](F)C6)nc4c2F)N2C[C@H]4CC[C@H](N4)[C@H]2[C@H](C)O3)cc(N)c1F [Compound 13, 2-fluoro-5-((5S,5aS,6S,9R)-1-fluoro-12-(((2R,7aS)-2-fluorotetrahydro-1H-pyrrolizin-7a(5H)-yl)methoxy)-5-methyl-5a,6,7,8,9,10-hexahydro-5H-4-oxa-3,10a,11,13,14-pentaaza-6,9-methanonaphtho[1,8-ab]heptalen-2-yl)-3-methylaniline] | 7.51 | 5.81 | 5.75
7 | Cc1c(F)c(N)cc(-c2nc3c4c(nc(OCC5(CN6CCOCC6)CC5)nc4c2F)N2C[C@H]4CC[C@H](N4)[C@H]2[C@H](C)O3)c1C(F)(F)F [Compound 118, 2-Fluoro-5-((5S,5aS,6S,9R)-1-fluoro-5-methyl-12-((1-(morpholinomethyl)cyclopropyl)methoxy)-5a,6,7,8,9,10-hexahydro-5H-4-oxa-3,10a,11,13,14-pentaaza-6,9-methanonaphtho[1,8-ab]heptalen-2-yl)-3-methyl-4-(trifluoromethyl)aniline] | 10.05 | – | 8.75
8 | Cc1c(F)c(N)cc(-c2nc3c4c(nc(OCC5CN(CC(F)F)C5)nc4c2F)N2C[C@H]4CC[C@H](N4)[C@H]2[C@H](C)O3)c1C(F)(F)F [Compound 128, 5-((5S,5aS,6S,9R)-12-((1-(2,2-Difluoroethyl)azetidin-3-yl)methoxy)-1-fluoro-5-methyl-5a,6,7,8,9,10-hexahydro-5H-4-oxa-3,10a,11,13,14-pentaaza-6,9-methanonaphtho[1,8-ab]heptalen-2-yl)-2-fluoro-3-methyl-4-(trifluoromethyl)aniline] | 9.32 | – | 6.81
9 | C[C@@H]1Oc2nc(-c3cc(N)cc(F)c3C(F)(F)F)c(F)c3nc(OCC4CCC5N4CCOC5(C)C)nc(c23)N2C[C@H]3CC[C@H](N3)[C@@H]12 (stereo partly drawn) [Compound 157, 3-((5S,5aS,6S,9R)-12-((1,1-Dimethylhexahydro-1H-pyrrolo[2,1-c][1,4]oxazin-6-yl)methoxy)-1-fluoro-5-methyl-5a,6,7,8,9,10-hexahydro-5H-4-oxa-3,10a,11,13,14-pentaaza-6,9-methanonaphtho[1,8-ab]heptalen-2-yl)-5-fluoro-4-(trifluoromethyl)aniline] | 9.26 | – | 7.34
10 | C[C@@H]1Oc2nc(-c3c(C(F)(F)F)cc(F)c(N)c3F)c(F)c3nc(OC[C@@]45CCCN4C[C@H](F)C5)nc(c23)N2C[C@H]3CC[C@H](N3)[C@@H]12 [Compound 90, 2,6-Difluoro-3-((5S,5aS,6S,9R)-1-fluoro-12-(((2R,7aS)-2-fluorotetrahydro-1H-pyrrolizin-7a(5H)-yl)methoxy)-5-methyl-5a,6,7,8,9,10-hexahydro-5H-4-oxa-3,10a,11,13,14-pentaaza-6,9-methanonaphtho[1,8-ab]heptalen-2-yl)-4-(trifluoromethyl)aniline] | 9.33 | – | 7.15
11 | Cc1c(F)c(N)cc(-c2nc3c4c(nc(OC[C@@H]5CC[C@H]6COCCN65)nc4c2F)N2C[C@H]4CC[C@H](N4)[C@H]2[C@H](C)O3)c1Cl [Compound 111, 4-Chloro-2-fluoro-5-((5S,5aS,6S,9R)-1-fluoro-12-(((6S,8aS)-hexahydro-1H-pyrrolo[2,1-c][1,4]oxazin-6-yl)methoxy)-5-methyl-5a,6,7,8,9,10-hexahydro-5H-4-oxa-3,10a,11,13,14-pentaaza-6,9-methanonaphtho[1,8-ab]heptalen-2-yl)-3-methylaniline] | 9.51 | – | 6.97
12 | C[C@@H]1Oc2nc(-c3cc(N)c(F)c(Cl)c3C(F)(F)F)c(F)c3nc(OC[C@@]45CCCN4C[C@H](F)C5)nc(c23)N2C[C@H]3CC[C@H](N3)[C@@H]12 [Compound 104, 3-Chloro-2-fluoro-5-((5S,5aS,6S,9R)-1-fluoro-12-(((2R,7aS)-2-fluorotetrahydro-1H-pyrrolizin-7a(5H)-yl)methoxy)-5-methyl-5a,6,7,8,9,10-hexahydro-5H-4-oxa-3,10a,11,13,14-pentaaza-6,9-methanonaphtho[1,8-ab]heptalen-2-yl)-4-(trifluoromethyl)aniline] | 10.30 | – | 9.15
13 | Cc1c(F)c(N)cc(-c2nc3c4c(nc(OC[C@@H](F)CN5CC6(COC6)C5)nc4c2F)N2C[C@H]4CC[C@H](N4)[C@H]2[C@H](C)O3)c1C(F)(F)F [Compound 145] | 9.17 | – | 6.77
14 | Cc1c(F)c(N)cc(-c2nc3c4c(nc(OC[C@@]56CCCN5CCN(C)C6=O)nc4c2F)N2C[C@H]4CC[C@H](N4)[C@H]2[C@H](C)O3)c1C(F)(F)F (single isomer, unassigned) [137 (isomer 1)] | 8.64 | – | 6.55
15 | Cc1c(F)c(N)cc(-c2nc3c4c(nc(OC[C@]5(CCF)CCCN5C)nc4c2F)N2C[C@H]4CC[C@H](N4)[C@H]2[C@H](C)O3)c1C(F)(F)F (single isomer, unassigned) [127 (isomer 2)] | 9.72 | – | 7.42
16 | Cc1cc(N)cc(-c2nc3c4c(nc(OC[C@@]56CCCN5C[C@H](F)C6)nc4c2F)N2C[C@H]4CC[C@H](N4)[C@H]2[C@H](C)O3)c1Cl [Compound 74, 4-Chloro-3-((5S,5aS,6S,9R)-1-fluoro-12-(((2R,7aS)-2-fluorotetrahydro-1H-pyrrolizin-7a(5H)-yl)methoxy)-5-methyl-5a,6,7,8,9,10-hexahydro-5H-4-oxa-3,10a,11,13,14-pentaaza-6,9-methanonaphtho[1,8-ab]heptalen-2-yl)-5-methylaniline] | 9.48 | – | 7.51
17 | Cc1c(F)c(N)cc(-c2nc3c4c(nc(OC[C@@H](F)CN5CC(CO)(CO)C5)nc4c2F)N2C[C@H]4CC[C@H](N4)[C@H]2[C@H](C)O3)c1C(F)(F)F [Compound 146] | 9.12 | – | 6.94
18 | Cc1c(F)c(N)cc(-c2nc3c4c(nc(OC[C@]56C[C@H](F)CN5C[C@H](F)C6)nc4c2F)N2C[C@H]4CC[C@H](N4)[C@H]2[C@H](C)O3)c1C(F)(F)F [Compound 141, 5-((5S,5aS,6S,9R)-12-(((2R,6S,7ar)-2,6-Difluorotetrahydro-1H-pyrrolizin-7a(5H)-yl)methoxy)-1-fluoro-5-methyl-5a,6,7,8,9,10-hexahydro-5H-4-oxa-3,10a,11,13,14-pentaaza-6,9-methanonaphtho[1,8-ab]heptalen-2-yl)-2-fluoro-3-methyl-4-(trifluoromethyl)aniline] | 9.59 | – | 7.07
